Source: paper PMC6675120, “Potent and selective inhibitors for M32 metallocarboxypeptidases identified from high-throughput screening of anti-kinetoplastid chemical boxes” (PLoS Neglected Tropical Diseases, 2019)
pIC50: −log10 of the molar value. Like-named read-outs stand apart in the source and are kept apart here.

Legend:
TbMCP-1 = TbMCP-1 (Trypanosoma brucei, UniProt Q386R0); assay: Continuous fluorogenic (FRET) TbMCP-1 assay with Abz-RFFK(Dnp)-OH, primary and secondary screening; assay type: biochemical; conditions: for TbMCP-1 Hill Slope: four-parameter Hill fit of dose-response curve; for TbMCP-1 2º/1º ratio: secondary (31,5 µM) / primary (25 µM) inhibition; for inhibition at 25 µM / TbMCP-1 Primary screening Inhibition (%): single inhibitor concentration 25 µM; for inhibition at 25 µM: read-out: TbMCP-1 Primary screening Inhibition (%); for inhibition / TbMCP-1 Secondary screening Inhibition (%): single inhibitor concentration 31,5 µM; for EDTA control (RFU/sec) Mean: EDTA final concentration 31,25 mM, inhibition control
Procedure: (§1) TcMCP-1 (MEROPS ID: M32.003) and TbMCP-1 were expressed as GST fusion proteins in E. coli BL21 (DE3) Codon Plus and purified as previously described.
(§2) TbMCP-1 and TcMCP-1 activities were assayed fluorometrically with Abz-RFFK(Dnp)-OH and Abz-LKFK(Dnp)-OH substrates, respectively, in 100 mM MOPS pH 7,2 containing 0,01% Triton X-100. Assays were performed in solid black 384-well plates (final reaction volume ~80 μL) and the hydrolysis of the K(Dnp)-OH group was monitored continuously at 30 °C with a Beckman Coulter DTX 880 Multimode Reader (Radnor, Pennsylvania, USA) using standard 320 nm excitation and 420 nm emission filter set.
(§3) In all cases, EDTA (final concentration 31,25 mM) was used as positive inhibition control.
(§4) Then, 40 μL of 100 mM MOPS, 0,01% Triton X-100 pH 7,2 containing TbMCP-1 (2,50 nM) or TcMCP-1 (0,34 nM) were added to each well, plates were homogenized (30 seg, orbital, medium intensity) and each well subjected to a single autofluorescence read (ex/em = 320/420 nm). Plates were incubated in darkness for 15 min at 30 °C and then 40 μL of Abz-RFFK(Dnp)-OH (4 μM) or Abz-LKFK(Dnp)-OH (0,8 μM) in assay buffer were added to each well to start the reaction. After homogenization (30 seg, orbital, medium intensity), the fluorescence of the Abz group (ortho-aminobenzoic acid) (ex/em = 320/420 nm) was acquired kinetically for each well (8 read cycles, one cycle every 300 seconds). Considering our previous experiences, the auto-fluorescent cut-off was arbitrarily set at 2x10^5 RFU to discard highly interfering compounds. All compounds were assayed in singlet (without replicates) due to the limited availability of stocks.
(§5) Raw screening measurements were used to determine the slope (dF/dt) of progression curves by linear regression for control and non-interfering compound wells. In the case of control-dependent hit selection criteria, percent inhibition percentage (%Inh) was calculated for each compound according to the following equation: Inh=100∙[1−(dF/dt^WELL−μ^C−)/(μ^C+−μ^C−)] (1) where dF/dt^WELL represents the slope of each compound well and μ^C+ and μ^C− the average of MCP (no-inhibition) and substrate (no-enzyme) controls, respectively.
(§6) To avoid any positional and/or association bias, we randomly defined the row position for each compound. One μL of compounds stock (10 mM in DMSO) and EDTA (31,25 mM) were added to the first well of column 1, followed by addition of 40 μL of 100 mM MOPS, 0,01% Triton X-100 pH 7,2 buffer. After addition of 20 μL of the same buffer to subsequent wells of the plate, 22 serial 2-fold dilutions were made horizontally. The last two positions of every row were used, alternatively, for C^+ and C^− controls to reduce any positional and/or association bias. Then, 20 μL of activity buffer containing TbMCP-1 or TcMCP-1 were added to each well, except for those corresponding to C^−; completed with 20 μL of activity buffer. After homogenization, 15 minutes of incubation at 30°C and autofluorescence measurement, the substrate (in activity buffer) was added to the previous mix. Data collection and processing were performed exactly as described above. Percentage of M32 MCPs residual activity was calculated for each condition according to the following equation: %Res.Act^MCP=100∙[(dF/dt^WELL−μ^C−)/(μ^C+−μ^C−)] (2) where dF/dt^WELL represents the slope of each compound well and μ^C+ and μ^C− the average of MCP (no-inhibition) and substrate (no-enzyme) controls, respectively.

TcMCP-1 = TcMCP-1 (Trypanosoma cruzi, UniProt Q6ZXC0); assay: Continuous fluorogenic (FRET) TcMCP-1 assay with Abz-LKFK(Dnp)-OH, primary and secondary screening; assay type: biochemical; set-up: inhibition: dose or concentration left out as unconfirmed; conditions: for TcMCP-1 Hill Slope: four-parameter Hill fit of dose-response curve; for inhibition: read-out: TcMCP-1 Secondary screening Inhibition (%); for TcMCP-1 2º/1º ratio: secondary (31,5 µM) / primary (25 µM) inhibition; for inhibition at 25 µM / TcMCP-1 Primary screening Inhibition (%): single inhibitor concentration 25 µM; for TcMCP-1 Secondary screening Inhibition (%): single inhibitor concentration 31,5 µM; for EDTA control (RFU/sec) Mean: EDTA final concentration 31,25 mM, inhibition control
Procedure: as §1, §2, §3, §4, §5
as §6, with “Compounds selected from primary screening were re-tested in a dose-response manner (final concentration ranging from […] to 62,5 μM) using identical assay conditions. To” for “To”

[1] = secondary screening, two-fold dilutions 7,5 pM to 62,5 μM, KM/[S] ~ 1, no replicates

TcMCP-1, sequence (Q6ZXC0 entry or part of it): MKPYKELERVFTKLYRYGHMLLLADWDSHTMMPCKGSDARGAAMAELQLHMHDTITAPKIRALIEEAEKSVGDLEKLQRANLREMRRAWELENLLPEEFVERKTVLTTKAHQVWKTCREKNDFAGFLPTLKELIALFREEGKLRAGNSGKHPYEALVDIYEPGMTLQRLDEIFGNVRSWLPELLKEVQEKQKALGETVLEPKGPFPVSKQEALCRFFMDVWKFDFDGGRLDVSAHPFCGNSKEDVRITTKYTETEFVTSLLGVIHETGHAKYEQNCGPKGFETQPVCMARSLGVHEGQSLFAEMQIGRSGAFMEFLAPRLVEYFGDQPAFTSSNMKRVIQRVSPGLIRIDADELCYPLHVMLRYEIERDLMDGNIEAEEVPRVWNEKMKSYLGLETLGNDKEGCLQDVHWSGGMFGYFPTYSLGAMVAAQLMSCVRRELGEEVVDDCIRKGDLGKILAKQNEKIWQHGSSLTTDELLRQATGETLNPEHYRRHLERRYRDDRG
TbMCP-1, sequence (Q386R0 entry or part of it): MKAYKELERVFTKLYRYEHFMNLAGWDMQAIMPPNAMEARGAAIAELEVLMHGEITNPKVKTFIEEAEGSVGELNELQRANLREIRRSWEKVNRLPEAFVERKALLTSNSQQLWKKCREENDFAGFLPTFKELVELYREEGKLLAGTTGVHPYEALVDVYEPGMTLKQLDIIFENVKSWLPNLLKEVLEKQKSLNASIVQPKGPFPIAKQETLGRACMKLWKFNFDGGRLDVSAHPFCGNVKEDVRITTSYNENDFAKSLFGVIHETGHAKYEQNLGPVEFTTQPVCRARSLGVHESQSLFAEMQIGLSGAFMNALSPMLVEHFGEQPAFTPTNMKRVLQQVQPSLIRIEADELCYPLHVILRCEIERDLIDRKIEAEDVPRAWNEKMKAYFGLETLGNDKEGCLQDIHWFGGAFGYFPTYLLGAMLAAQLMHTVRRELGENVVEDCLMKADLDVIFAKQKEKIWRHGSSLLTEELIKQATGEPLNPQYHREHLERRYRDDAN

Compound	TbMCP-1 Hill Slope (TbMCP-1)	TbMCP-1 2º/1º ratio (TbMCP-1)	inhibition at 25 µM (TbMCP-1)	inhibition (TbMCP-1)	pIC50 (TcMCP-1)	TcMCP-1 Hill Slope (TcMCP-1)	inhibition (TcMCP-1)	TcMCP-1 2º/1º ratio (TcMCP-1)	pIC50 (TcMCP-1; [1])	inhibition at 25 µM (TcMCP-1)	pIC50 (TbMCP-1)	TbMCP-1 Primary screening Inhibition (%) (TbMCP-1)	TbMCP-1 Secondary screening Inhibition (%) (TbMCP-1)	TcMCP-1 Primary screening Inhibition (%) (TcMCP-1)	TcMCP-1 Secondary screening Inhibition (%) (TcMCP-1)	further results
Fc1ccccc1N1CC2CCN(c3cccnc3)CC2C1 (centres unmarked) [TCMDC-143422]	-1,206	0,99	81.1%	80.2%	5.82	-1,038	93.9%	1,19	≥ 5.00	78.8%						pIC50 (TbMCP-1; [1]): 4.98
CCOC(=O)c1cn[nH]c1S(=O)(=O)N1CCC1c1ccccc1 (centres unmarked) [TCMDC-143456]	-1,247	1,04	66.2%	69%		-0,9597	97.7%	1,10	≥ 5.00	89.1%	4.83					
Cl.NS(=O)(=O)c1ccc(Nc2ncc3cccc(OC4CCNCC4)c3n2)cc1 [TCMDC-143382]	-0,7258	0,99			4.69	-0,7277		1,18			4.65	57,82%	57,14%	53,63%	63,12%	
CCn1c(-c2nonc2N)nc2c(C(C)O)ncc(OC(CN)c3ccccc3)c21 (centres unmarked) [TCMDC-143323]	-0,894	1,00	87.2%	87%												inhibition on TcMCP-1 (TcMCP-1): < 30%
O=c1[nH]c(C=Cc2cccc(OCCOc3ccccc3)c2)nc(O)c1[N+](=O)[O-] [TCMDC-143209]	-1,2405	0,86	50%	42.9%	2.38	-1,019	92.5%	1,09	≥ 5.00	85%	4.55					
O=C(c1cccc(Cl)c1Cl)N1CCn2c1nc(-c1ccncc1)cc2=O [TCMDC-143409]	-1,2409	1,13	68.9%	78%												pIC50 (TbMCP-1; [1]): 4.98; inhibition on TcMCP-1 (TcMCP-1): < 30%
O=C(O)CN(CCN(CC(=O)O)CC(=O)O)CC(=O)O [EDTA, reference compound]																EDTA control (RFU/sec) Mean (TbMCP-1; Plate 1): 0,13 RFU/sec; EDTA control (RFU/sec) Mean (TbMCP-1; Plate 2): 0,39 RFU/sec; EDTA control (RFU/sec) Mean (TcMCP-1; Plate 1): 1,28 RFU/sec; EDTA control (RFU/sec) Mean (TcMCP-1; Plate 2): 2,32 RFU/sec
Cc1cc(C)c(C#N)c(SCC(=O)c2ccc3c(c2)OCO3)n1 [TCMDC-143625]		0,35						0,45				49,55%	17,11%	43,83%	19,89%	
C[C@@H](Oc1cc(-n2cnc3ccc(O[C@H]4CCNC4)cc32)sc1C(N)=O)c1ccccc1Cl [TCMDC-143515]	-0,8447	1,26			4.66	-1,149		1,02			4.50	40,42%	50,90%	54,26%	55,47%	
CN(CC1CCCO1)S(=O)(=O)c1ccc(C(=O)Nc2nc(-c3ccccn3)cs2)cc1 (centres unmarked) [TCMDC-143551]	-1,562	0,99			4.86	-1,834		1,14			4.46	42,28%	41,97%	65,04%	74,11%	
